Measurements reported in patent US10087188B2, “Benzamide imidazopyrazine Btk inhibitors” (MERCK SHARP & DOHME CORP., priority 2014, dated 2018).

Legend:
[1] = target: BTK enzyme (recombinant full-length BTK, hBTK) (Homo sapiens (Human), UniProt Q06187); assay: Btk enzyme activity assay, LANCE TR-FRET; format: biochemical; details: 50 pM hBTK, 2 μM biotin-A5-peptide, 25 μM ATP; 60 minute compound & enzyme incubation; read-out: BTK binding IC50
Procedure: Btk Enzyme Activity Assay Methods
BTK enzymatic activity was determined with the LANCE (Lanthanide Chelate Excite) TR-FRET (Time-resolved fluorescence resonance energy transfer) assay. […] After 60 minutes incubation with detection reagents, reaction plates were read on a PerkinElmer EnVision plate reader using standard TR-FRET protocol.

HeLa cells = assay: [3H] Adenosine uptake assay; format: cell-based; details: Homo sapiens, HeLa, accumulation of tritiated adenosine into HeLa cells; compound concentration range 10 μM to 0.032 nM; read-out: ADU inhibition IC50 (adenosine uptake inhibition potency)
Method in brief: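 HeLa cells in HBSS + 5% FBS preincubated 30 min at ambient temperature with compound (0.25% DMSO), then [3H]adenosine (500 nM stock) added for 60 min. Uptake measured by scintillation proximity counting; IC50 from 4-parameter fit of counts vs log concentration.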

BTK enzyme (recombinant full-length BTK, hBTK), sequence (Q06187 whole entry): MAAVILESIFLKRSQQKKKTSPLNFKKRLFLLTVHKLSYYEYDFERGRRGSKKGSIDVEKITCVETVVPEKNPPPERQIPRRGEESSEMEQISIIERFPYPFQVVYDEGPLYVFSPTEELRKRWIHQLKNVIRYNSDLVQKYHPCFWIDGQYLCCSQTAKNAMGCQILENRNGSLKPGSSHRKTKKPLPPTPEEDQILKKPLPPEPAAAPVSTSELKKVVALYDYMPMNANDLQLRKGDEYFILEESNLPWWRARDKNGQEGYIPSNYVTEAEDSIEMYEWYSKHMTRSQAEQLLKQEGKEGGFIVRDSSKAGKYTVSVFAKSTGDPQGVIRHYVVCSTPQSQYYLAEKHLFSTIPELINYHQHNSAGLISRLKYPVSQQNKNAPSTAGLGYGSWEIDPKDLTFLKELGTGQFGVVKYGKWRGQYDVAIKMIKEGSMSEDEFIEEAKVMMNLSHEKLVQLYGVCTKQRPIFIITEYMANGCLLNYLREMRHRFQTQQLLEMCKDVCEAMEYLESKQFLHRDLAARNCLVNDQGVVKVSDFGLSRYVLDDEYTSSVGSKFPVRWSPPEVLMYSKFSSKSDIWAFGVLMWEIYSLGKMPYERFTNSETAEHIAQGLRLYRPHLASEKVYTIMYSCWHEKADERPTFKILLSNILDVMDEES

| SMILES | IC50 [1] | IC50 (HeLa cells) |
| --- | --- | --- |
| CCOc1cc(C(=O)Nc2cc(C(F)(F)F)ccn2)ccc1-c1nc([C@H]2CC[C@](C(=O)O)(C(C)C)C2)n2c(Cl)cnc(N)c12 [Example 110, (1R,3S)-3-[8-amino-5-chloro-1-(2-ethoxy-4-{[4-(trifluoromethyl)pyridin-2-yl]carbamoyl}phenyl)imidazo[1,5-a]pyrazin-3-yl]-1-(1-methylethyl) cyclopentane-carboxylic acid] | 2.1 nM | 4750 nM |
| CCOc1cc(C(=O)Nc2cc(C(F)(F)F)ccn2)ccc1-c1nc([C@@H]2CC[C@](C(=O)O)(C(C)C)C2)n2c(Cl)cnc(N)c12 [Example 112, (1R,3R)-3-[8-amino-5-chloro-1-(2-ethoxy-4-{[4-(trifluoromethyl)pyridin-2-yl]carbamoyl}phenyl)imidazo[1,5-a]pyrazin-3-yl]-1-(1-methylethyl) cyclopentane-carboxylic acid] | 21.7 nM | 10000 nM |
| Nc1nccn2c([C@@H]3CCC[C@H](C(=O)O)C3)nc(-c3ccc(C(=O)Nc4cc(C5CC5)ccn4)cc3F)c12 [Example 9, (1S,3R)-3-(8-amino-1-{4-[(4-cyclopropyl-pyridin-2-yl)carbamoyl]-2-fluorophenyl}imidazo[1,5-a]pyrazin-3-yl)cyclohexane-carboxylic acid] | 1.2 nM | 4400 nM |
| CCOc1cc(C(=O)Nc2cc(C(F)(F)F)n(C)n2)ccc1-c1nc([C@@H]2CC[C@@](C(=O)O)(C(C)C)C2)n2ccnc(N)c12 [Example 52, (1S,3R)-3-[8-amino-1-(2-ethoxy-4-{[1-methyl-5-(trifluoromethyl)-1H-pyrazol-3-yl]carbamoyl}phenyl)imidazo[1,5-a]pyrazin-3-yl]-1-(1-methylethyl) cyclopentane-carboxylic acid] | 9 nM | 10000 nM |
| C[C@]1(C(=O)O)CC[C@@H](N2CCO[C@@H](c3nc(-c4ccc(C(=O)Nc5cc(C6CC6)ccn5)cc4F)c4c(N)nccn34)C2)CC1 [Example 198, cis-4-[(2R)-2-(8-amino-1-{4-[(4-cyclopropylpyridin-2-yl)carbamoyl]-2-fluorophenyl}imidazo[1,5-a]pyrazin-3-yl)morpholin-4-yl]-1-methylcyclohexanecarboxylic acid] | 10.5 nM | 2030 nM |
| C[C@@]1(C(=O)O)CCCN(c2nc(-c3ccc(C(=O)Nc4cc(C(F)(F)F)ccn4)cc3)c3c(N)nccn23)C1 [Example 41, (3R)-1-[8-amino-1-(4-{[4-(trifluoromethyl)pyridin-2-yl]carbamoyl}phenyl)imidazo[1,5-a]pyrazin-3-yl]-3-methylpiperidine-3-carboxylic acid] | 7.6 nM | 4290 nM |
| CCOc1cc(C(=O)Nc2cc(C(F)(F)F)ccn2)ccc1-c1nc([C@@H]2CCC[C@@](C(=O)O)(C(C)C)C2)n2ccnc(N)c12 [Example 88, (1S,3R)-3-[8-amino-1-(2-ethoxy-4-{[4-(trifluoromethyl)pyridin-2-yl]carbamoyl}phenyl)imidazo[1,5-a]pyrazin-3-yl]-1-(1-methylethyl) cyclohexane-carboxylic acid] | 38.5 nM | 3690 nM |
| CCOc1cc(C(=O)Nc2cc(C(F)(F)F)ccn2)ccc1-c1nc(C2(C)CCC(C)(C(=O)O)CC2)n2ccnc(N)c12 (stereo not drawn) [Example 78, 4-[8-amino-1-(2-ethoxy-4-{[4-(trifluoromethyl)pyridin-2-yl]carbamoyl}phenyl)imidazo[1,5-a]pyrazin-3-yl]-1,4-dimethylcyclohexane-carboxylic acid] | 1.3 nM | 5140 nM |
| COc1cc(C(=O)Nc2cc(C(F)(F)F)ccn2)ccc1-c1nc([C@H]2CN(C(=O)C34CC(C(=O)O)(C3)C4)[C@@H](C)CO2)n2ccnc(N)c12 [Example 177, 3-({(2R,5S)-2-[8-amino-1-(2-methoxy-4-{[4-(trifluoromethyl)pyridin-2-yl]carbamoyl}phenyl)imidazo [1,5-a]pyrazin-3-yl]-5-methylmorpholin-4-yl}carbonyl)bicyclo[1.1.1] pentane-1-carboxylic acid] | 0.76 nM | 10000 nM |
| Nc1nccn2c([C@H]3CN(C4CC(C(=O)O)C4)CCO3)nc(-c3ccc(C(=O)Nc4cc(C(F)(F)F)ccn4)cc3)c12 (stereo partly drawn) [Example 179, 3-{(2R)-2-[8-amino-1-(4-{[4-(trifluoromethyl)pyridin-2-yl]carbamoyl}phenyl)imidazo [1,5-a]pyrazin-3-yl]morpholin-4-yl}cyclobutanecarboxylic acid] | 0.93 nM | 4730 nM |
| COc1cc(C(=O)Nc2cc(C(F)(F)F)ccn2)ccc1-c1nc(C2CCC(C)(C(=O)O)CC2)n2c(Cl)cnc(N)c12 (stereo not drawn) [Example 166, 4-[8-amino-5-chloro-1-(2-methoxy-4-{[4-(trifluoromethyl)pyridin-2-yl]carbamoyl}phenyl)imidazo[1,5-a]pyrazin-3-yl]-1-methylcyclohexane-carboxylic acid] | 4.3 nM | 10000 nM |
| C[C@H]1CO[C@@H](c2nc(-c3ccc(C(=O)Nc4cc(C(F)F)ccn4)cc3F)c3c(N)nccn23)CN1[C@H]1CC[C@](C)(C(=O)O)CC1 [Example 208, trans-4-{(2R,5S)-2-[8-amino-1-(4-{[4-(difluoromethyl)pyridin-2-yl]carbamoyl}-2-fluorophenyl)imidazo[1,5-a]pyrazin-3-yl]-5-methylmorpholin-4-yl}-1-methylcyclohexanecarboxylic acid] | 923 nM | 10000 nM |

The next lines start with the values.

| IC50 [1] | IC50 (HeLa cells) | SMILES |
| --- | --- | --- |
| 0.49 nM | 1320 nM | CC1(C(=O)O)CCC(N2CCO[C@@H](c3nc(-c4ccc(C(=O)Nc5cc(C(F)(F)F)ccn5)cc4)c4c(N)nccn34)C2)CC1 (stereo partly drawn) [Example 176, (R)-4-(2-(8-amino-1-(4-((4-(trifluoromethyl)pyridin-2-yl)carbamoyl)phenyl)imidazo[1,5-a]pyrazin-3-yl)morpholino)-1-methylcyclohexanecarboxylic acid] |
| 0.58 nM | 8550 nM | CCOc1cc(C(=O)Nc2cc(C(F)(F)F)ccn2)ccc1-c1nc([C@H]2CC[C@@](C(=O)O)(C(C)C)C2)n2ccnc(N)c12 [Example 63, (1S,3S)-3-[8-amino-1-(2-ethoxy-4-{[4-(trifluoromethyl)pyridin-2-yl]carbamoyl}phenyl)imidazo[1,5-a]pyrazin-3-yl]-1-(1-methylethyl) cyclopentane-carboxylic acid] |
| 0.39 nM | 4910 nM | CCOc1cc(C(=O)Nc2cc(C(F)(F)F)ccn2)ccc1-c1nc(C23CCCC(C(=O)O)(CC2)CC3)n2ccnc(N)c12 [Example 67, 5-[8-amino-1-(2-ethoxy-4-{[4-(trifluoromethyl)pyridin-2-yl]carbamoyl}phenyl)imidazo[1,5-a]pyrazin-3-yl]bicyclo[3.2.2] nonane-1-carboxylic acid] |
| 0.59 nM | 5200 nM | CC1(C)[C@H](c2nc(-c3ccc(C(=O)Nc4cc(C(F)(F)F)ccn4)cc3Cl)c3c(N)nccn23)CC[C@]1(C)C(=O)O [Example 129, (1S,3R)-3-[8-amino-1-(2-chloro-4-{[4-(trifluoromethyl)pyridin-2-yl]carbamoyl}phenyl)imidazo[1,5-a]pyrazin-3-yl]-1,2,2-trimethylcyclopentane carboxylic acid] |
| 0.45 nM | 7350 nM | CCOc1cc(C(=O)Nc2cc(C(F)(F)F)ccn2)ccc1-c1nc([C@@H]2CC[C@](C)(C(=O)O)C2(C)C)n2ccnc(N)c12 [Example 84, (1S,3R)-3-[8-amino-1-(2-ethoxy-4-{[4-(trifluoromethyl)pyridin-2-yl]carbamoyl}phenyl)imidazo[1,5-a]pyrazin-3-yl]-1,2,2-trimethylcyclopentane carboxylic acid] |
| 0.76 nM | 4580 nM | CC(C)[C@@]1(C(=O)O)CC[C@@H](N2C[C@H](c3nc(-c4ccc(C(=O)Nc5cc(C(F)(F)F)ccn5)cc4F)c4c(N)ncc(Cl)n34)OC[C@@H]2C)C1 [Example 202, (1R,3R)-3-{(2R,5S)-2-[8-amino-5-chloro-1-(2-fluoro-4-{[4-(trifluoromethyl)pyridin-2-yl]carbamoyl}phenyl)imidazo [1,5-a]pyrazin-3-yl]-5-methylmorpholin-4-yl}-1-(1-methylethyl) cyclopentanecarboxylic acid] |
| 0.56 nM | 2840 nM | C[C@H]1CO[C@@H](c2nc(-c3ccc(C(=O)Nc4cc(C(F)(F)F)ccn4)cc3F)c3c(N)nccn23)CN1[C@H]1CC[C@](C)(C(=O)O)CC1 [Example 193, trans-4-{(2R,5S)-2-[8-amino-1-(2-fluoro-4-{[4-(trifluoromethyl)pyridin-2-yl]carbamoyl}phenyl)imidazo [1,5-a]pyrazin-3-yl]-5-methylmorpholin-4-yl}-1-methylcyclohexanecarboxylic acid] |
| 0.75 nM | 10000 nM | CCOc1cc(C(=O)Nc2cc(C3CC3)ccn2)cc(F)c1-c1nc(C2(C)CCC(C)(C(=O)O)CC2)n2ccnc(N)c12 (stereo not drawn) [Example 131, 4-(8-amino-1-{4-[(4-cyclopropylpyridin-2-yl)carbamoyl]-2-ethoxy-6-fluorophenyl}imidazo [1,5-a]pyrazin-3-yl)-1,4-dimethylcyclohexane-carboxylic acid] |
| 0.52 nM | 1880 nM | CCOc1cc(C(=O)Nc2cc(C(F)(F)F)ccn2)ccc1-c1nc(C23CCC(C(=O)O)(CC2)C3)n2ccnc(N)c12 [Example 103, 4-[8-amino-1-(2-ethoxy-4-{[4-(trifluoromethyl)pyridin-2-yl]carbamoyl}phenyl)imidazo[1,5-a]pyrazin-3-yl]bicyclo[2.2.1] heptane-1-carboxylic acid] |
